Active and inactive are the calls of the source.
Experiments:
Pseudomonas aeruginosa = assay: Antibacterial activity against Pseudomonas aeruginosa ATCC 27853 assessed as inhibition of bacterial growth incubated for 18 hrs by agar dilution method; type: functional, organism-based
Serratia marcescens = assay: Antibacterial activity against Serratia marcescens ATCC 21074 assessed as inhibition of bacterial growth incubated for 18 hrs by agar dilution method; type: functional, organism-based
Klebsiella aerogenes = assay: Antibacterial activity against Enterobacter aerogenes ATCC 13048 assessed as inhibition of bacterial growth incubated for 18 hrs by agar dilution method; type: functional, organism-based
[1] = tested on: Mycobacterium tuberculosis; assay: Antitubercular activity against INH/RIF-sensitive Mycobacterium tuberculosis clinical isolate S23 assessed as inhibition of bacterial growth incubated for 7 to 10 days by Alamar Blue staining based analysis; type: functional; settings: time 7-10 day
[2] = tested on: Mycobacterium tuberculosis; assay: Antitubercular activity against Mycobacterium tuberculosis H37Rv assessed as inhibition of bacterial growth incubated for 7 to 10 days by Alamar Blue staining based analysis; type: functional; settings: time 7-10 day
[3] = tested on: Mycobacterium tuberculosis; assay: Antitubercular activity against INH/RIF-sensitive Mycobacterium tuberculosis clinical isolate S17 assessed as inhibition of bacterial growth incubated for 7 to 10 days by Alamar Blue staining based analysis; type: functional; settings: time 7-10 day
Klebsiella pneumoniae [4] = assay: Antibacterial activity against Klebsiella pneumoniae ATCC 700603 assessed as inhibition of bacterial growth incubated for 18 hrs by agar dilution method; type: functional, organism-based
Acinetobacter baumannii = assay: Antibacterial activity against Acinetobacter baumannii ATCC 19606 assessed as inhibition of bacterial growth incubated for 18 hrs by agar dilution method; type: functional, organism-based
[5] = tested on: Stenotrophomonas maltophilia; assay: Antibacterial activity against Pseudomonas maltophilia ATCC 13636 assessed as inhibition of bacterial growth incubated for 18 hrs by agar dilution method; type: functional, organism-based
Escherichia coli [6] = assay: Antibacterial activity against Escherichia coli ATCC 2469 assessed as inhibition of bacterial growth incubated for 18 hrs by agar dilution method; type: functional, organism-based
[7] = tested on: Praffidenbacterium reggii; assay: Antibacterial activity against […] ATCC 31052 assessed as inhibition of bacterial growth incubated for 18 hrs by agar dilution method; type: functional
Klebsiella pneumoniae [8] = assay: Antibacterial activity against Klebsiella pneumoniae ATCC BAA-2146 assessed as inhibition of bacterial growth incubated for 18 hrs by agar dilution method; type: functional, organism-based
Escherichia coli [9] = assay: Antibacterial activity against Escherichia coli ATCC 25922 assessed as inhibition of bacterial growth incubated for 18 hrs by agar dilution method; type: functional, organism-based
Proteus mirabilis = assay: Antibacterial activity against Proteus mirabilis ATCC 49565 assessed as inhibition of bacterial growth incubated for 18 hrs by agar dilution method; type: functional, organism-based
Escherichia coli [10] = assay: Antibacterial activity against Escherichia coli 16-1 assessed as inhibition of bacterial growth incubated for 18 hrs by agar dilution method; type: functional, organism-based
Escherichia coli [11] = assay: Antibacterial activity against Escherichia coli ATCC 35218 assessed as inhibition of bacterial growth incubated for 18 hrs by agar dilution method; type: functional, organism-based
Enterobacter cloacae = assay: Antibacterial activity against Enterobacter cloacae ATCC 43560 assessed as inhibition of bacterial growth incubated for 18 hrs by agar dilution method; type: functional, organism-based
Shigella flexneri = assay: Antibacterial activity against Shigella flexneri ATCC 12022 assessed as inhibition of bacterial growth incubated for 18 hrs by agar dilution method; type: functional, organism-based

C[C@H]1c2c[nH]c3cccc(c23)S[C@H]1C(=O)O [CHUANGXINMYCIN]
1 µg/mL: MIC [2]
0.78 µg/mL: MIC [1] | MIC [3]
inactive: Activity (Pseudomonas aeruginosa) | Activity (Serratia marcescens) | Activity (Klebsiella aerogenes) | Activity (Klebsiella pneumoniae [4]) | Activity (Acinetobacter baumannii) | Activity [5] | Activity (Escherichia coli [6]) | Activity [7] | Activity (Klebsiella pneumoniae [8]) | Activity (Escherichia coli [9]) | Activity (Proteus mirabilis) | Activity (Escherichia coli [10]) | Activity (Escherichia coli [11]) | Activity (Enterobacter cloacae)

CO[C@H]1/C=C/O[C@@]2(C)Oc3c(C)c(O)c4c(O)c(c(/C=N/N5CCN(C)CC5)c(O)c4c3C2=O)NC(=O)/C(C)=C\C=C\[C@H](C)[C@H](O)[C@@H](C)[C@@H](O)[C@@H](C)[C@H](OC(C)=O)[C@@H]1C [RIFAMPIN]
0.25 µg/mL: MIC [1] | MIC [2] | MIC [3]

O=C(O)[C@H]1Cc2c[nH]c3cccc(c23)S1
4 µg/mL: MIC [2]
0.78 µg/mL: MIC [1] | MIC [3]

NNC(=O)c1ccncc1 [ISONIAZID]
0.125 µg/mL: MIC [1] | MIC [3]
0.06 µg/mL: MIC [2]

CC1(C)c2c[nH]c3cccc(c23)S[C@H]1C(=O)O
50 µg/mL: MIC [3]
inactive: Activity (Pseudomonas aeruginosa) | Activity (Serratia marcescens) | Activity (Klebsiella aerogenes) | Activity (Klebsiella pneumoniae [4]) | Activity (Acinetobacter baumannii) | Activity [5] | Activity (Shigella flexneri) | Activity (Escherichia coli [6]) | Activity [7] | Activity (Klebsiella pneumoniae [8]) | Activity (Escherichia coli [9]) | Activity (Proteus mirabilis) | Activity (Escherichia coli [10]) | Activity (Escherichia coli [11]) | Activity (Enterobacter cloacae)
32 µg/mL: MIC [2]
12.5 µg/mL: MIC [1]

Reference: ChEMBL document CHEMBL5226381, “Iterative Methylation Leads to 3-Methylchuangxinmycin Production in Actinoplanes tsinanensis CPCC 200056” (2023)
